Assay results taken from patent publication US6472526B1, “Imidazole derivatives having an inhibitory activity for farnesyl transferase and process for preparation thereof” (LG Chemical Ltd., priority 1997, dated 2002).

How the values were obtained:
[1] = molecular target: T1, Ras farnesyl transferase (Homo sapiens, UniProt P49354+P49356); test: In vitro inhibitory activity for Ras farnesyl transferase, H-Ras substrate; type: biochemical
T1 construct: made in house
Description: In the present experiment, Ras farnesyl transferase produced by genetic recombination techniques according to the improved Pompliano's method (Pompliano et al., Biochemistry, 1992, 31, 3800) was used, and Ras substrate (Ras-CVLS) protein described in Korean Patent Appln. No. 97-14409 was used after it has been purified according to the known method (see, Chung et al., Biochimica et Biophysica Acta, 1992, 278, 1129).
The enzyme reaction was performed in 50 μl of 50 mM Sodium HEPES buffer solution containing 25 mM of potassium chloride, 25 mM of magnesium chloride, 10 mM of DTT and 50 μM of zinc chloride. 1.5 μM of Ras substrate protein, 0.15 μM of tritium-farnesylpyrophosphate and 4.5 nM of farnesyl transferase were used.
More specifically, in the initial step, farnesyl transferase was added to the above buffer solution, reaction was maintained for 30 minutes at 37° C. and then the reaction was stopped by adding 1 ml of ethanol solution containing 1M HCl. The formed precipitates were adsorbed to GF/B filter using Hopper harvestor(Hopper #FH 225V) for filter-binding, washed with ethanol, and then radioactivity of the dried filter was measured using LKB β counter. Enzyme titer was measured in the unsaturated state of substrate where the concentrations of Ras substrate protein and farnesyl transferase have quantitative relationship. The compound according to the present invention dissolved in dimethyl sulfoxide (DMSO) was added to the reaction solution in an amount of less than 5% of the total reaction solution, and then the enzyme inhibitory activity thereof was measured. The enzyme inhibitory activity was represented by percentage of the amount of farnesyl incorporated into the Ras substrate protein in the presence of the test compound to that in the absence of the test compound. IC50 of the test compound was defined as the concentration at which 50% of the enzyme activity was inhibited.

[2] = molecular target: T1, Ras farnesyl transferase; test: In vitro inhibitory activity for Ras farnesyl transferase, K-Ras substrate; type: biochemical
[3] = molecular target: T2, Ras farnesyl transferase (Rattus norvegicus, UniProt Q02293+Q04631); test: In vivo (cellular) inhibitory activity for Ras farnesyl transferase, Rat2 cell line which expresses C-Harvey-Ras protein; type: cell-based
T2 construct: endogenous in cells; host or cells: Rat2 fibroblasts transformed with H-Ras or with an H-Ras/K-Ras C-terminus fusion
Description: (§1) In the present experiment, Rat2 cell line which expresses C-Harvey-Ras protein having transforming activity and Rat2 cell line (Korean patent application No. 97-14409) which is transformed with fused protein of H-Ras substituted with polybasic lysine domain at C-terminus of K-Ras were used. The experiment was performed by the modified Declue's method (Declue. J. E. et al., Cancer Research, 1991, 51, 712). Hereinafter, the experimental method will be described in more detail.
(§2) 3×10^5 cells of transformed Rat2 fibroblast cell line were sprayed on 60 mm cell cultivation dish and cultivated for 48 hours in a cell incubator at 37° C. and after 50% or more of density was reached, it was treated with the test compounds. The compound according to the present invention dissolved in dimethylsulfoxide (DMSO) was used. 1% concentration of dimethylsulfoxide was used in both control and test groups. After 4 hours from the treatment with the compound, methionine labeled with 150 μCi of radioactive isotope [^35S] per 1 ml of medium was added and after cultivating for 20 hours, the cells were, washed with physiological saline water. The cells were lysed using 1 ml of cold cell lysis buffer solution (50 mM of Sodium HEPES buffer solution containing 5mM of magnesium chloride, 1 mM of DTT, 1% NP 40, 1 mM of EDTA, 1 mM of PMSF, 2 μM of leupeptin, 2 μM of pepstatin A and 2 μM of antipain) and the supernatant wherein the cells were lysed was obtained by high-velocity centrifugation of 12,000 g×5 minutes. The amount of radioisotope in the supernatant was measured and standardized to obtain a quantitative result in immunoprecipitation reaction and then, Y13-259, a monoclonal antibody specifically binding to Ras protein (Furth, M. E. et al., J. Virol, 1982, 43, 294) was added and reacted for 15 hours at 4° C. Protein A(combined with goat anti-murine immunoglobulin antibody)-agarose suspension was added to the solution and reacted for 1 hour at 4° C. and then, to remove the unspecific binding product, immunoprecipitates were washed with a buffer solution (50 mM Tris chloride buffer solution containing 50 mM of sodium chloride, 0.5% of sodium dioxycolate, 0.5% of NP 40 and 0.1% of SDS). The precipitates were added to a buffer solution for electrophoresis and boiled and then, electrophoresis was performed using 13.5% of SDS polyacrylamide gel. After electrophoresis, the gel was fixed and dried. Then, the gel was exposed to X-ray film, developed printed. From the result of the experiment, intensities of band of in combined with or without farnesyl of Ras protein were measured, the concentration of the test compound inhibiting 50% of farnesyl bonding was defined as […], an in vivo Ras farnesyl transferase inhibitory activity.

[4] = molecular target: T2, Ras farnesyl transferase; test: In vivo (cellular) inhibitory activity for Ras farnesyl transferase, Rat2 cell line transformed with fused protein of H-Ras substituted with polybasic lysine domain at C-terminus of K-Ras; type: cell-based
Description: as §1, §2

[5] = recombinant farnesyl transferase 4.5 nM, Ras substrate protein 1.5 μM, tritium-farnesylpyrophosphate 0.15 μM, 30 minutes at 37° C., read-out: H-Ras IC50
[6] = in vitro farnesyl transferase assay, K-Ras, read-out: K-Ras IC50
[7] = Rat2 cell line expressing C-Harvey-Ras, concentration inhibiting 50% of farnesyl bonding of Ras protein, read-out: H-Ras CIC50
[8] = Rat2 cell line transformed with H-Ras fused with polybasic lysine domain of K-Ras C-terminus, concentration inhibiting 50% of farnesyl bonding, read-out: K-Ras CIC50

Structure (SMILES): O=C(c1ccc(Br)cc1)c1cn(Cc2c[nH]cn2)cc1-c1cccc2ccccc12 [Compound 49]
- IC50 [1, 5]: 30 nM
- IC50 [2, 6]: 485 nM
- IC50 [3, 7]: 700 nM
- IC50 [4, 8]: < 20000 nM

Structure (SMILES): O=C(NCCO)c1cn(Cc2c[nH]cn2)cc1-c1cccc2ccccc12 [Compound 93]
- IC50 [1, 5]: 320 nM
- IC50 [2, 6]: 100 to 10000 nM
- IC50 [3, 7]: 1000 to 50000 nM
- IC50 [4, 8]: 10000 to 100000 nM

Structure (SMILES): N#Cc1ccc(Cn2cncc2Cn2ccc(C(=O)c3cccc4ccccc34)c2)cc1 [Compound 139, 1-[1-(4-Cyanobenzyl)-1H-imidazol-5-yl]methyl-3-(naphthalen-1-yl)carbonyl-1H-pyrrole]
- IC50 [1]: 5 nM
- IC50 [2]: 37000 nM
- IC50 [3]: 70 nM
- IC50 [4]: 7000 nM

Structure (SMILES): COC(=O)C(CCSC)NC(=O)c1cn(Cc2cncn2Cc2ccc(C#N)cc2)cc1-c1cccc2ccccc12 (stereo in doubt) [Compound 100, (S)-1-[1-(4-Cyanobenzyl)-1H-imidazol-5-yl]methyl-3-[N-(1-methoxycarbonyl-3-methylthio)propyl]carbamoyl-4-(naphthalen-1-yl)-1H-pyrrole]
- IC50 [1, 5]: 1800 nM
- IC50 [2, 6]: 100 to 10000 nM
- IC50 [3, 7]: > 1000 nM
- IC50 [4, 8]: > 20000 nM

Structure (SMILES): N#Cc1ccc(CNC(=O)c2cn(Cc3c[nH]cn3)cc2-c2cccc3ccccc23)cc1 [Compound 98]
- IC50 [1, 5]: 900 nM
- IC50 [2, 6]: 100 to 10000 nM
- IC50 [3, 7]: 1000 to 50000 nM
- IC50 [4, 8]: 10000 to 100000 nM

Structure (SMILES): COCCN(C)C(=O)c1cn(Cc2cncn2C)nc1-c1cccc2ccccc12 [Compound 157, 1-[1-Methyl-1H-imidazol-5-ylmethyl]-4-[N-(2-methoxyethyl)-N-methyl]-carbamoyl-3-(naphthalen-1-yl)-1H-pyrazole]
- IC50 [1, 5]: 10 nM
- IC50 [2, 6]: 5000 nM
- IC50 [3, 7]: 100 nM
- IC50 [4, 8]: > 50000 nM

Structure (SMILES): O=C(c1cn(Cc2cncn2CCc2ccccc2)cc1-c1cccc2ccccc12)N1CCOCC1 [Compound 15]
- IC50 [1, 5]: 5 nM
- IC50 [2, 6]: 10 nM
- IC50 [3, 7]: 25 nM
- IC50 [4, 8]: 10000 to 50000 nM

Structure (SMILES): Cc1ccc(C(=O)c2cn(Cc3c[nH]cn3)cc2-c2cccc3ccccc23)cc1 [Compound 52]
- IC50 [1, 5]: 70 nM
- IC50 [2, 6]: 100 to 10000 nM
- IC50 [3, 7]: 1000 to 50000 nM
- IC50 [4, 8]: 10000 to 100000 nM

Structure (SMILES): COCCN(C)C(=O)c1cn(Cc2cncn2CCc2ccc(C)cc2)cc1-c1cccc2ccccc12 [Compound 37, 3-[N-(2-Methoxyethyl)-N-methyl]carbamoyl-1-[1-(4-methyl)phenethyl-1H-imidazol-5-yl]methyl-4-(naphthalen-1-yl)-1H-pyrrole]
- IC50 [1, 5]: 2 nM
- IC50 [2, 6]: 3 nM
- IC50 [3, 7]: 25 nM
- IC50 [4, 8]: 10000 to 50000 nM

Structure (SMILES): O=C(c1cn(Cc2cncn2Cc2cccc3ccccc23)cc1-c1cccc2ccccc12)N1CCOCC1 [Compound 6]
- IC50 [1, 5]: 1 nM
- IC50 [2, 6]: 2 nM
- IC50 [3, 7]: 25 nM
- IC50 [4, 8]: 10000 to 50000 nM

Structure (SMILES): O=C(c1cn(Cc2c[nH]cn2)cc1-c1cccc2ccccc12)N1CCSCC1 [Compound 86]
- IC50 [1, 5]: 30 nM
- IC50 [2, 6]: 100 to 10000 nM
- IC50 [3, 7]: 2000 nM
- IC50 [4, 8]: > 50000 nM

Structure (SMILES): COCCN(C)C(=O)c1cn(Cc2cncn2Cc2ccc(Br)cc2)cc1-c1cccc2ccccc12 [Compound 111, 1-[1-(4-Bromobenzyl)-1H-imidazol-5-yl]methyl-3-[N-(2-methoxyethyl)-N-methyl]carbamoyl-4-(naphthalen-1-yl)-1H-pyrrole]
- IC50 [1, 5]: 2 nM
- IC50 [2, 6]: 2 nM
- IC50 [3, 7]: 30 nM
- IC50 [4, 8]: 4000 nM

Structure (SMILES): O=C(c1ccc(Cl)cc1)c1cn(Cc2c[nH]cn2)cc1-c1cccc2ccccc12 [Compound 56]
- IC50 [1, 5]: 40 nM
- IC50 [2, 6]: 100 to 10000 nM
- IC50 [3, 7]: 1000 to 50000 nM
- IC50 [4, 8]: 10000 to 100000 nM

Structure (SMILES): CSCC[C@H](NC(=O)c1cn(Cc2cncn2Cc2ccc(C#N)cc2)cc1-c1cccc2ccccc12)C(=O)O [Compound 101, (S)-1-[1-(4-Cyanobenzyl)-1H-imidazol-5-yl]methyl-3-[N-(1-hydroxycarbonyl-3-methylthio)propyl]carbamoyl-4(naphthalen-1-yl)-1H-pyrrole]
- IC50 [1, 5]: 10 nM
- IC50 [2, 6]: 800 nM
- IC50 [3, 7]: > 5000 nM
- IC50 [4, 8]: > 50000 nM
